Laboratory results reported in US20140322149A1, “COMPOUND USEFUL FOR TREATING CELLULITE” (SIGMA-TAU INDUSTRIE FARMACEUTICHE RIUNITE S.P.A., priority 2008, published 2014).

System: cellulite in the thigh
Test: Anticellulite activity, intradermal multiple injection in the thigh of female subjects
Assay type: in vivo, human
Conditions: for Irritation reactions: during treatment; for Irritation reactions / Reduction of the fatty layer thickness / Reduction of the thigh diameter / Skin firmness / Skin hydration / Surface smoothness / Subjective improvement: 50.0 mg in 2.5 mL intradermally by multiple injection; for Irritation reactions / Reduction of the fatty layer thickness / Reduction of the thigh diameter / Skin firmness / Skin hydration / Surface smoothness / Subjective improvement / Clinical grading: once per week; for Reduction of the fatty layer thickness / Reduction of the thigh diameter / Skin firmness / Skin hydration / Surface smoothness: end of treatment (week 6) vs base line; for Subjective improvement / Clinical grading: end of treatment (week 6); for Clinical grading: visual grading of degree of cellulite, scale 0-4, 50.0 mg in 2.5 mL intradermally; for Anticellulite activity (overall, in words): comparison among propionyl L-carnitine, acetyl L-carnitine and L-carnitine
Protocol: The effectiveness of intradermally administration of the product according to the invention was tested for its ability to reduce the appearance of cellulite in the thigh. A total of 54 female subjects ranging in age from 23 to 58 years of age were selected to evaluate the composition of the invention.
The subjects were selected based on their cellulite intensity in the thigh area having a bi-lateral symmetry. Subjects with grades 1 and 2 cellulite were chosen, as a 5-point grading scale was used to rate the cellulite severity of each subject. The scale ranged from 0 to 4, being 0=No cellulite; 1=Small bumps or depressions; 2=Striations and bumps; 3=Pronounced lumpiness of the skin and striations; 4=All of the above plus hard sub-surface nodules.
All subjects had the absence of any visible skin disease(s) which might be confused with a skin reaction from the test material and were in general good health with no known allergies, especially to cosmetic or toiletry products; had no evidence of acute or chronic disease; were not pregnant or lactating; were not on any diet or weight reduction program; and were not on any regular exercise program (immediately prior to or during the course of the study).
At baseline each subject received a visual examination conducted by a qualified technician and scored for the degree of cellulite. In the same day subjects were treated on the right and left thigh intradermally by multiple injection, (from 5 to 10 injections per thigh using a “Lebel needle” 4 mm×0.4 mm; 27 G). The treatment was repeated once per week for […] (week 0; 1; 2; 3; 4; and 5).
The degree of cellulite was evaluated according to the following scale: 0=No visible cellulite; 1=Very little visible cellulite, no dimpling; 2=Visible cellulite, evidence of shallow dimpling; 3=Easily visible cellulite, moderate to pronounced dimpling; 4=Extremely visible cellulite, heavy and deep dimpling.
The patients were divided in 3 groups and treated intradermally by multiple injection with a composition comprising:
Group A • Propionyl L-Carnitine: 50.0 mg; • Mannitol: 100.0 mg; • Sodium phosphate bibasic bi-hydrate: 24.0 mg; • Trometamine: 8.0 mg; • H2O: 2.5 mL (final volume);
Group B • Acetyl L-Carnitine: 50.0 mg; • Mannitol: 100.0 mg; • Sodium phosphate bibasic bi-hydrate: 24.0 mg; • Trometamine: 8.0 mg; • H2O: 2.5 mL (final volume); or
Group C • L-Carnitine: 50.0 mg; • Mannitol: 100.0 mg; • Sodium phosphate bibasic bi-hydrate: 24.0 mg; • Trometamine: 8.0 mg; • H2O: 2.5 mL (final volume).
Subjects were instructed to discontinue the use of their normal anti-cellulite products to avoid introducing any new products for treating cellulite during the study, and to not be on any diet or weight reduction program or on any regular exercise program immediately prior to or during the course of the study. Each subject was also instructed to keep a diary to document compliance.
After 7 days from the last treatment (week 6) the subjects returned to the hospital for a final visual evaluation.
The cellulite evaluation was made according the method described in Cosmetics & Toiletries, 61-70, June 1995, by comparison of the values before and after the treatment.

CC(=O)O[C@H](CC(=O)[O-])C[N+](C)(C)C [Acetyl L-carnitine, Acetyl L-Carnitine]
Irritation reactions: 0
Reduction of the fatty layer thickness: −10%
Reduction of the thigh diameter: −2%
Skin firmness: +6%
Skin hydration: +8%
Surface smoothness: +15%
Subjective improvement: +15%
Clinical grading: +8%
Anticellulite activity (overall, in words) (summary of Table 1): inferior compared with that of propionyl L-carnitine

CCC(=O)O[C@H](CC(=O)[O-])C[N+](C)(C)C [Propionyl L-carnitine, Propionyl L-Carnitine]
Irritation reactions: 0
Reduction of the fatty layer thickness: −28%
Reduction of the thigh diameter: −11%
Skin firmness: +20%
Skin hydration: +27%
Surface smoothness: +42%
Subjective improvement: +57%
Clinical grading: +34%
Effect on skin infrastructure (dermis of the skin) (summary of Table 1): improved skin infrastructure
Anticellulite activity (overall, in words) (summary of Table 1): effectively ameliorate the cellulite condition
Anticellulite activity (overall, in words) (summary of Table 1, listed as compound of the invention): significantly higher respect to the activity of L-carnitine or acetyl L-carnitine

C[N+](C)(C)C[C@H](O)CC(=O)[O-] [L-carnitine, L-Carnitine]
Reduction of the fatty layer thickness: −12%
Reduction of the thigh diameter: −3%
Skin firmness: +9%
Skin hydration: +10%
Surface smoothness: +18%
Subjective improvement: +19%
Clinical grading: +12%
Anticellulite activity (overall, in words) (summary of Table 1): inferior compared with that of propionyl L-carnitine
